Experimental data from US11266692B2, “Intracellular genomic transplant and methods of therapy” (Regents of the University of Minnesota, priority 2015, dated 2022).

Each substance was assayed on CCR5 (assay: Validation of gRNAs: Cas9/gRNA plasmids in HEK293T, Surveyor digest, gel densitometry). Details: CCR5 gene site, 3 days.
Type: cell-based, human
Description: (§1) HEK293T cells were plated out at a density of 1×10^5 cells per well in a 24 well plate. 150 uL of Opti-MEM medium was combined with 1.5 ug of gRNA plasmid, 1.5 ug of Cas9 plasmid. Another 150 uL of Opti-MEM medium was combined with 5 ul of Lipofectamine 2000 Transfection reagent (Invitrogen). The solutions were combined together and incubated for 15 minutes at room temperature. The DNA-lipid complex was added dropwise to wells of the 24 well plate. Cells were incubated for 3 days at 37° C. and genomic DNA was collected using the GeneJET Genomic DNA Purification Kit (Thermo Scientific). Activity of the gRNAs was quantified by a Surveyor Digest, gel electrophoresis, and densitometry (FIG. 60 and FIG. 61) (Guschin, D. Y., et al., “A Rapid and General Assay for Monitoring Endogenous Gene Modification,” Methods in Molecular Biology, 649: 247-256 (2010)).
(§2) The efficiencies of Cas9 in creating double strand break (DSB) with the assistance of different gRNA sequences were listed in Table 7. The percentage numbers in Table 7 indicated the percent of gene modifications in the sample.

| Substance | efficiency of Cas9/gRNA pair in creating double strand break (DSB), percent of gene modifications [%] |
| --- | --- |
| CCR5 gRNA#5: guide RNA to CCR5; sense primer SEQ ID 69 CACCGATCTGGTAAAGATGATTCC | 36.07 |
| CCR5 gRNA#1: guide RNA to CCR5; sense primer SEQ ID 61 CACCGACAATGTGTCAACTCTTGAC | 21.47 |
| CCR5 gRNA#2: guide RNA to CCR5; sense primer SEQ ID 63 CACCGTCATCCTCCTGACAATCGAT | >60 |
| CCR5 gRNA#3: guide RNA to CCR5; sense primer SEQ ID 65 CACCGGTGACAAGTGTGATCACTT | 55.98 |
| CCR5 gRNA#6: guide RNA to CCR5; sense primer SEQ ID 71 CACCGTTGTATTTCCAAAGTCCCAC | 33.17 |
| CCR5 gRNA#4: guide RNA to CCR5; sense primer SEQ ID 67 CACCGACACAGCATGGACGACAGCC | 45.99 |

What follows are substances tested on CTLA4 in the same assay as above. Details: CTLA4 gene site, 3 days.
Type: cell-based, human
Description: as §1, §2

| Substance | efficiency of Cas9/gRNA pair in creating double strand break (DSB), percent of gene modifications [%] |
| --- | --- |
| CTLA4 gRNA#2: guide RNA to CTLA4; sense primer SEQ ID 49 CACCGTGCGGCAACCTACATGATG | 56.10 |
| CTLA4 gRNA#5: guide RNA to CTLA4; sense primer SEQ ID 55 CACCGCCGCACAGACTTCAGTCACC | 15.90 |
| CTLA4 gRNA#6: guide RNA to CTLA4; sense primer SEQ ID 57 CACCGCTGGCGATGCCTCGGCTGC | 36.93 |
| CTLA4 gRNA#4: guide RNA to CTLA4; sense primer SEQ ID 53 CACCGAGGTTCACTTGATTTCCAC | 40.13 |
| CTLA4 gRNA#3: guide RNA to CTLA4; sense primer SEQ ID 51 CACCGCTAGATGATTCCATCTGCAC | 39.33 |
| CTLA4 gRNA#1: guide RNA to CTLA4; sense primer SEQ ID 47 CACCGCCGGGTGACAGTGCTTCGGC | 40.96 |

Each substance was assayed on HPRT in the same assay as above. Details: HPRT gene site, 3 days.
Type: cell-based, human
Description: as §1, §2

| Substance | efficiency of Cas9/gRNA pair in creating double strand break (DSB), percent of gene modifications |
| --- | --- |
| HPRT gRNA#4: guide RNA to HPRT; sense primer SEQ ID 11 CACCGTAAATTTCTCTGATAGACTA | <5% |
| HPRT gRNA#6: guide RNA to HPRT; sense primer SEQ ID 15 CACCGGTCTCGAACTCCTGAGCTC | <5% |
| HPRT gRNA#5: guide RNA to HPRT; sense primer SEQ ID 13 CACCGTGTTTCAATGAGAGCATTAC | <1% |
| HPRT gRNA#1: guide RNA to HPRT; sense primer SEQ ID 5 CACCGCACGTGTGAACCAACCCGCC | 27.85% ^ |
| HPRT gRNA#3: guide RNA to HPRT; sense primer SEQ ID 9 CACCGACAAAAAAATTAGCCGGGTG | <1% |
| HPRT gRNA#2: guide RNA to HPRT; sense primer SEQ ID 7 CACCGAAACAACAGGCCGGGCGGGT | 30.04% ^ |

What follows are substances tested on AAVS1 in the same assay as above. Details: AAVS1 gene site, 3 days.
Type: cell-based, human
Description: as §1
(§3) The percentage numbers in Table 7 indicated the percent of gene modifications in the sample.

| Substance | efficiency of Cas9/gRNA pair in creating double strand break (DSB), percent of gene modifications [%] |
| --- | --- |
| AAVS1 gRNA#6: guide RNA to AAVS1; sense primer SEQ ID 29 CACCGCGGGCCCCTATGTCCACTTC | 39.62 |
| AAVS1 gRNA#5: guide RNA to AAVS1; sense primer SEQ ID 27 CACCGCCGGCCCTGGGAATATAAGG | 27.55 |
| AAVS1 gRNA#2: guide RNA to AAVS1; sense primer SEQ ID 21 CACCGACCCCACAGTGGGGCCACTA | 27.10 |
| AAVS1 gRNA#1: guide RNA to AAVS1; sense primer SEQ ID 19 CACCGTGGGGGTTAGACCCAATATC | 32.99 |

The substances below were run on PD1 in the same assay as above. Details: PD1 gene site, 3 days.
Type: cell-based, human
Description: as §1, §3

| Substance | efficiency of Cas9/gRNA pair in creating double strand break (DSB), percent of gene modifications [%] |
| --- | --- |
| PD1 gRNA#5: guide RNA to PD-1; sense primer SEQ ID 41 CACCGCGTTGGGCAGTTGTGTGACA | 30.60 |
| PD1 gRNA#4: guide RNA to PD-1; sense primer SEQ ID 39 CACCGAGGCGGCCAGCTTGTCCGTC | 20.87 |
| PD1 gRNA#2: guide RNA to PD-1; sense primer SEQ ID 35 CACCGCCTGCTCGTGGTGACCGAAG | >60 |
| PD1 gRNA#1: guide RNA to PD-1; sense primer SEQ ID 33 CACCGCGGAGAGCTTCGTGCTAAAC | 10.83 |
| PD1 gRNA#6: guide RNA to PD-1; sense primer SEQ ID 43 CACCGACGGAAGCGGCAGTCCTGGC | 25.91 |
